From US12410141B2, “Anti-cancer spirocyclic-guanidine compounds and uses thereof” (The Johns Hopkins University, priority 2020, dated 2025)

Experiments:
PEA1 = assay: MTT cytotoxicity assay, PEA1; assay type: cell-based; conditions: PEA1, ovarian, 72 hr, read-out: IC50, cell killing
Procedure: (§1) All cell lines were obtained from the American Type Culture Collection (ATCC) and cultured in the specified medium supplemented with 10% fetal bovine serum, 100 IU/mL penicillin, and 100 μg/mL streptomycin at 37° C. in a humidified 5% CO2/95% air incubator. To assess drug cytotoxicity cells were seeded at 2,500 cells/well (10,000 cells/well for MM lines and primary cells) in 100 μL medium in 96-well plate. […]
(§2) It was examined whether the RPN13 inhibitor, RA475, was cytotoxic for cancer cell lines using the MTT assay.

ES2 = assay: Flow cytometry analysis of cell death, ES2; assay type: cell-based; conditions: 1 μM or 2 μM, 16 hr
Procedure: 10^5 cells were re-suspended in binding buffer, 5 μL of Annexin V-PE (Apoptosis Detection Kit I (BD Pharmingen) and 5 μL of 7-AAD were then added into the cells, which were then incubated at room temperature for 15 minutes and analyzed by flow cytometry on a FACSCalibur using CellQuest software (Becton Dickinson).
Two ovarian cancer cell lines, ES2 and OVCAR3, were treated with 1 μM or 2 μM RA475 and 16 hr later the cells were harvested and stained with 7-AAD and Annexin V. 7-AAD is a DNA dye that can enter dying cells and Annexin V is commonly used to detect apoptotic cells by its ability to bind to phosphatidylserine, an early marker of apoptosis when it is exposed on the outer leaflet of the plasma membrane.

HeLa = assay: MTT cytotoxicity assay, HeLa; assay type: cell-based; conditions: cervical, 72 hr, read-out: IC50, cell killing
Procedure: as §1, §2

[1] = Microsomal stability, mouse liver microsomes; assay type: in vitro ADME
Procedure: (§3) Human and mouse liver microsomes and NADPH regenerating system solutions were purchased from Corning Life Sciences (Tewsbury, MA). Human and mouse K2EDTA was purchased from BioIVT (Westbury, NY). Metabolic studies in liver microsomes (0.125 mg/mL) were conducted in 1× phosphate buffered saline (pH 7.4), NADPH-generating system, and 10 μM of RA475 in a final volume of 250 μl. An incubation mixture with and without NADPH-generating system as well as a neat solution without microsomes and NADPH-generating system were prepared. RA475 was added at the same concentration level into human and mouse EDTA plasma. All reactions were initiated with the addition of RA475. Incubations were performed in glass tubes maintained at 37° C. in a shaker bath. At 0, 30, and 60 minutes, 10 μL aliquots were sampled from the reaction mixture and 0.5 mL of acetonitrile containing internal standard (Up284) was added to each samples. Samples were vortex-mixed and underwent centrifugation for 5 min at 1430×g. A 10 μL aliquot of the supernatant was injected onto the LC-MS instrument for qualitative analysis using a temperature-controlled autosampling device operating at 5° C. Chromatographic analysis was performed using a Waters Acquity™ Ultra Performance LC. […] The mobile phase used for the chromatographic separation was composed of water (mobile phase A) and acetonitrile (mobile phase B) containing 0.1% (v/v) formic acid with a flow rate of 0.3 mL/min. The initial mobile phase composition was 80% mobile phase A and 20% mobile phase B. From 0.5 to 1 min, mobile phase B was increased linearly from 20% to 100%. From 1 to 3 min, mobile phase B was maintained at 100%. From 3.0 to 3.1 min, the gradient decreased to 20% mobile phase B and the conditions were maintained until 4.1 min to re-equilibrate the column for the next injection. The column effluent was monitored using an AB Sciex 5500 triple quadrupole mass spectrometer. The instrument was equipped with an electrospray interface, operated in a positive mode and controlled by the Analyst v1.6 software. For the stability study, the mass spectrometer was programmed to monitor the following MRM transition 408.2→366.1 for RA475 and 366.2→155.8 for UP284 (internal standard). Results were assessed qualitatively comparing the average area ratio of RA475 at 0 hr to area ratio at 30 and 60 minutes for both mouse and human liver microsomes. RA475 was not analyzed for metabolites due to the concentration of RA475 not decreasing.

4T1 = assay: MTT cytotoxicity assay, 4T1; assay type: cell-based; conditions: 4T1, breast (TNBC), 72 hr, read-out: IC50, cell killing
Procedure: as §1, §2

[2] = Plasma stability, mouse EDTA plasma; assay type: in vitro ADME; conditions: 37° C.
Procedure: as §3

[3] = tested on: 4UbFL reporter in leg muscle of CD-1 mice; assay: On-target activity in vivo using 4UbFL; set-up: species or system mouse; conditions: 40 mg/Kg single i.p. dose
Procedure: A patch was shaved of hair on one leg of CD-1 mice, and 10 μg 4UbFL plasmid in 20 μL of PBS was injected into the quadriceps femoralis muscle followed immediately by injection of the 2 Needle Array to 5 mm depth encompassing the injection site and square wave electroporation (ElectroSquarePorator 833, BTX-2 Needle array 5 mm gap, Harvard apparatus) delivered as eight pulses at 106V for 20 ms with 200 ms intervals. One day post electroporation, mice were anesthetized with isoflurane, injected i.p. with luciferin (0.3 mg in 100 μL water) and optical imaging was performed to determine basal level luciferase expression. Images were acquired for 10 min with a Xenogen IVIS 200 (Caliper, Hopkinton, MA). Equally sized areas were analyzed using Living Image 2.20 software. Mice were imaged weekly during treatment. Mice were randomized into three groups (n=5) and treated i.p. once with Vehicle (25% (w/v) β-Hydroxypropylcyclodextrin in water, Sigma Aldrich), RA475 (40 mg/Kg) and Up284 (40 mg/Kg) and mice were imaged again at 4 hr, 24 hr, 48 hr, 72 hr and 96 hr later.
To assess on-target activity in vivo, 4UbFL plasmid was injected into the muscle of one leg of CD-1 mice followed by electroporation. Luciferin was injected i.p. 24 hr later and the mice were tagged and imaged using an IVIS200 to visualize their basal bioluminescence. The mice were then immediately randomized to 3 groups and treated with vehicle alone (25% β-hydroxypropylcyclodextrin-water solution), RA475 (40 mg/Kg) and Up284 (40 mg/Kg) administered as a single i.p. dose. To examine the on-target activity, the mice were imaged again at 4 hr, 24 hr, 48 hr, 72 hr and 96 hr later.

Row | SMILES | IC50 (PEA1) | 7-AAD and Annexin V double positive cells (ES2) | IC50 (HeLa) | % Drug Remaining ([1]; NADPH Neg, 0 minutes) | % Drug Remaining ([1]; NADPH Neg, 30 minutes) | % Drug Remaining ([1]; NADPH Neg, 60 minutes) | % Drug Remaining ([1]; NADPH Pos, 0 minutes) | % Drug Remaining ([1]; NADPH Pos, 30 minutes) | % Drug Remaining ([1]; NADPH Pos, 60 minutes) | IC50 (4T1) | % Drug Remaining ([2]; 0 minutes) | % Drug Remaining ([2]; 30 minutes) | % Drug Remaining ([2]; 60 minutes) | increase in bioluminescence at the site of electroporation over baseline ([3]; 4 hr after administration) | increase in bioluminescence at the site of electroporation over baseline ([3]; 24 hr after administration)
1 | Cl.Cl.N#Cc1ccc(/C=C2/C(=O)/C(=C/c3ccc(C#N)cc3)C23CCN(C(=N)N)CC3)cc1 [RA475] | 406 nM | dose-dependent induction | 213 nM | 100% | 90% | 108% | 100% | 93% | 98% | 261 nM | 100% | 109% | 109% | 24 fold | 6 fold
2 | N#Cc1ccc(/C=C2/C(=O)/C(=C/c3ccc(C#N)cc3)C23CCNCC3)cc1 [Up284, reference compound] |  |  |  | 100% | 60% | 51% | 100% | 45% | 38% |  | 100% | 84% | 94% |  | ~3 fold
